Data from patent publication US20210317141A1, “OXOPYRIDO[1,2-A]PYRIMIDINE COMPOUNDS FOR THE TREATMENT AND PROPHYLAXIS OF BACTERIAL INFECTION” (Hoffmann-La Roche Inc., priority 2018, published 2021).
Values after ≈ are worked out from the molar mass of the structure shown. Like-named read-outs stand apart in the source and are kept apart here.

What was measured:
[1] = Lyophilisation solubility assay (LYSA); type: physicochemical; details: aqueous buffer, thermodynamic from solid; 0.05 M phosphate buffer, pH 6.5; * = detection limit
Procedure: The solubility of compounds of present invention was assessed by LYSA assay. Samples were prepared in duplicate from 10 mM DMSO stock solutions (20 μL) diluted in 30 μL pure DMSO. After evaporation of DMSO with a centrifugal vacuum evaporator, the residue was dissolved in 0.05 M phosphate buffer (150 μL, pH 6.5), stirred for one hour and shook for two hours. After one night, the solution was filtered using a microtiter filter plate. Then the filtrate and its 1/10 dilution were analyzed by HPLC-UV. In addition, a four-point calibration curve was prepared from the 10 mM stock solutions and used for the solubility determination of the compounds.

E. coli (ATCC 25922) = test: Minimal Inhibitory Concentration (MIC) assay; type: cell-based; details: Escherichia coli, read-out: MIC (μg/mL) E. coli ATCC 25922
Procedure: The in vitro potency of compounds to inhibit E. coli (ATCC 25922) growth was assessed by MIC (Minimal Inhibitory Concentration) assay. Samples were prepared from 10 mM DMSO stock solutions. After serial 2-fold dilution in DMSO in a master plate (Greiner, Cat No: 651201), 180 μL sterile distilled water was added to 20 μL each aliquot of the samples. Then […], diluted compounds were transferred into a new assay plate (Costar, 3599).
The growth medium […] Mueller Hinton Broth (CAMHB) was prepared by adding the 20 mg per liter CaCl2) and 20 mg per liter MgCl2 into the MHB medium (Jianglai Company, sterilized).
Vials of each of the test microorganisms were maintained frozen in the vapor phase of a liquid nitrogen freezer. Took out the bacteria E. coli ATCC 25922 (KWIKSTIK, 0335K) from liquid nitrogen freezer, thawed it in room temperature, and diluted the bacterial in the CAMHB medium to achieve a final inoculum of 5×10^5 CFU/mL. 90 μL CAMHB with bacteria was dispensed to the assay plate and pipetted 5 times.
Then the assay plates were incubated for 20 hours at 35° C. in ambient air. Following incubation, the MIC (μg/mL), the lowest concentration of drug that inhibits visible growth of the microorganism was read and recorded throw the microscope.

[2] = ATCC25922, CAMHB, 20 hours at 35° C.

solubility thermodynamic [1] [mg/mL]	MIC (E. coli (ATCC 25922); [2]) [µg/mL]	SMILES	MIC (E. coli (ATCC 25922); ATCC25922, 20 h) [µg/mL]
0.06 (≈ 110 µM)		CNc1cc(F)c(F)c2c1[nH]c1ncc(-c3ccc4ncc(C(=O)O)c(=O)n4c3)c(N3CCC4CN(C)CC43)c12 (stereo not shown) [Example 1.08, 7-[5,6-Difluoro-4-(5-methyl-2,3,3a,4,6,6a-hexahydropyrrolo[2,3-c]pyrrol-1-yl)-8-(methylamino)-9H-pyrido[2,3-b]indol-3-yl]-4-oxo-pyrido[1,2-a]pyrimidine-3-carboxylic acid]	
0.165 (≈ 276 µM)	0.0707 (≈ 0.118 µM)	CNc1cc(F)c(F)c2c1[nH]c1ncc(-c3ccc4ncc(C(=O)O)c(=O)n4c3)c(N3CCC(CN(C)CC(F)F)C3)c12 (stereo not shown) [Example 1.20, 7-(4-(3-(((2,2-Difluoroethyl)(methyl)amino)methyl)pyrrolidin-1-yl)-5,6-difluoro-8-(methylamino)-9H-pyrido [2,3-b]indol-3-yl)-4-oxo-4H-pyrido[1,2-a]pyrimidine-3-carboxylic acid]	
0.065 (≈ 111 µM)		CNc1cc(F)c(F)c2c1[nH]c1ncc(-c3ccc4ncc(C(=O)O)c(=O)n4c3)c(N3CC(CN(C)C)C(F)(F)C3)c12 (stereo not shown) [Example 1.22, 7-[4-[4-[(dimethylamino)methyl]-3,3-difluoro-pyrrolidin-1-yl]-5,6-difluoro-8-(methylamino)-9H-pyrido[2,3-b]indol-3-yl]-4-oxo-pyrido[1,2-a]pyrimidine-3-carboxylic acid]	
	0.697 (≈ 1.27 µM)	CNc1cc(F)cc2c1[nH]c1ncc(-c3ccc4ncc(C(=O)O)c(=O)n4c3)c(N3CCC(c4ccccc4)C3)c12 (stereo not shown) [Example 1.25, 7-(6-Fluoro-8-(methylamino)-4-(3-phenylpyrrolidin-1-yl)-9H-pyrido[2,3-b]indol-3-yl)-4-oxo-4H-pyrido[1,2-a]pyrimidine-3-carboxylic acid]	
0.031 (≈ 58.1 µM)	0.759 (≈ 1.42 µM)	CNc1c(F)c(F)cc2c1[nH]c1ncc(-c3ccc4ncc(C(=O)O)c(=O)n4c3)c(N3CC[C@@H](N(C)C)C3)c12 [Example 1.27, (R)-7-(4-(3-(Dimethylamino)pyrrolidin-1-yl)-6,7-difluoro-8-(methylamino)-9H-pyrido[2,3-b]indol-3-yl)-4-oxo-4H-pyrido[1,2-a]pyrimidine-3-carboxylic acid]	
		CNc1cc(F)c(F)c2c1[nH]c1ncc(-c3ccc4ncc(C(=O)O)c(=O)n4c3)c(N3CCN4CCOCC4C3)c12 (stereo not shown) [Example 1.28, 7-(5,6-Difluoro-4-(hexahydropyrazino[2,1-c][1,4]oxazin-8(1H)-yl)-8-(methylamino)-9H-pyrido[2,3-b]indol-3-yl)-4-oxo-4H-pyrido[1,2-a]pyrimidine-3-carboxylic acid compound with formic acid]	0.356 (≈ 0.634 µM)
0.043 (≈ 78.2 µM)		CNc1cc(F)c(F)c2c1[nH]c1ncc(-c3cc(N4CCOCC4)c4ncc(C(=O)O)c(=O)n4c3)c(N(C)C)c12 [Example 1.32, 7-[4-(Dimethylamino)-5,6-difluoro-8-(methylamino)-9H-pyrido[2,3-b]indol-3-yl]-9-morpholino-4-oxo-pyrido[1,2-a]pyrimidine-3-carboxylic acid]	
0.275 (≈ 491 µM)	0.164 (≈ 0.293 µM)	CNc1cc(F)c(F)c2c1[nH]c1ncc(-c3cc(C)c4ncc(C(=O)O)c(=O)n4c3)c(N3CCC4CN(C)CC43)c12 (stereo not shown) [Example 1.33, 7-[5,6-Difluoro-4-(5-methyl-2,3,3a,4,6,6a-hexahydropyrrolo[2,3-c]pyrrol-1-yl)-8-(methylamino)-9H-pyrido[2,3-b]indol-3-yl]-9-methyl-4-oxo-pyrido[1,2-a]pyrimidine-3-carboxylic acid]	
> 0.84	0.84 (≈ 1.39 µM)	CNc1cc(F)c(F)c2c1[nH]c1ncc(-c3cc(CN4CCC5CN(C)CC54)c4ncc(C(=O)O)c(=O)n4c3)c(N(C)C)c12 (stereo not shown) [Example 2.06, 7-[4-(Dimethylamino)-5,6-difluoro-8-(methylamino)-9H-pyrido[2,3-b]indol-3-yl]-9-[(5-methyl-2,3,3a,4,6,6a-hexahydropyrrolo[2,3-c]pyrrol-1-yl)methyl]-4-oxo-pyrido[1,2-a]pyrimidine-3-carboxylic acid]	
